Patent publication US11034656B2, “Maleate salts of (E)-N-(3-cyano-7-ethoxy-4-((4-phenoxyphenyl)amino) quinolin-6-yl)-4-(dimethylamino)but-2-enamide and crystalline forms thereof” (TELIGENE LTD, priority 2017, dated 2021)
Counter-ions that a name gives are not always drawn. Like-named read-outs stand apart in the source and are kept apart here.

How the values were obtained:
Hygroscopicity test = assay type: physicochemical; conditions: 25° C.±1° C., relative humidity 80%±2%, 24 hours, (m3−m2)/(m2−m1)*100%
Protocol: Hygroscopicity tests of ((E)-N-(3-cyano-7-ethoxy-4-((4-phenoxyphenyl)amino) quinolin-6-yl)-4-(dimethylamino)but-2-enamide in different acid salts have been carried out by the following method:
Take the dry glass weighing bottle which has a plug (outer diameter is 50 mm, high is 15 mm); placed in a suitable 25° C.±1° C. constant temperature dryer (place a saturated solution of ammonium chloride or ammonium sulfate in the lower part) or artificial climate box (set the temperature to 25° C.±1° C. and the relative humidity to 80%±2%) one day before the test, accurately weighting its weight (m1).
Take appropriate amount of the test sample and lay it in the above weighing bottle, the thickness of the test sample is generally 1 mm, accurately weighting its weight (m2).
Open the weighing bottle and place it at the constant temperature and humidity as above-mentioned for 24 hours with its plug.
Accurately weighting its weight (m3), including the weighing bottle and its plug. Percentage of weight gain=(m3−m2)/(m2−m1)*100%

Crystallinity by PXRD = assay type: physicochemical
Protocol: PXRD is performed in Rigaku UltimaIV diffractometer, copper target, λ=1.5406 A; working voltage 40 kv; working current: 40 Ma; scan speed: 60.000 deg./min; scan range: 4.0000->60.0000 deg.

[1] = Bioavailability in SD rats (I.V. and PO); assay type: in vivo; conditions: rat, blood, male, I.V. 5 mg/kg, PO 10 mg/kg via gavage

## CCOc1cc2ncc(C#N)c(Nc3ccc(Oc4ccccc4)cc3)c2cc1NC(=O)/C=C/CN(C)C [Sulphate salt, (E)-N-(3-cyano-7-ethoxy-4-((4-phenoxyphenyl)amino)quinolin-6-yl)-4-(dimethylamino)but-2-enamide Sulfate]
Hygroscopicity test; Sulfate
  weight gain (%): 36.13%

## CCOc1cc2ncc(C#N)c(Nc3ccc(Oc4ccccc4)cc3)c2cc1NC(=O)/C=C/CN(C)C [L-malate salt, (E)-N-(3-cyano-7-ethoxy-4-((4-phenoxyphenyl)amino)quinolin-6-yl)-4-(dimethylamino)but-2-enamide Malate]
Hygroscopicity test; Malate
  weight gain (%): 16.36%
Crystallinity by PXRD; Malate
  Crystallinity by PXRD: amorphous

## CCOc1cc2ncc(C#N)c(Nc3ccc(Oc4ccccc4)cc3)c2cc1NC(=O)/C=C/CN(C)C [Citrate salt, (E)-N-(3-cyano-7-ethoxy-4-((4-phenoxyphenyl)amino)quinolin-6-yl)-4-(dimethylamino)but-2-enamide Citrate]
Hygroscopicity test; Citrate
  weight gain (%): 27.04%
Crystallinity by PXRD; Citrate
  Crystallinity by PXRD: crystalline
[1]
  bioavailability: 36.7%

## CCOc1cc2ncc(C#N)c(Nc3ccc(Oc4ccccc4)cc3)c2cc1NC(=O)/C=C/CN(C)C [Hydrochloride acid salt, (E)-N-(3-cyano-7-ethoxy-4-((4-phenoxyphenyl)amino)quinolin-6-yl)-4-(dimethylamino)but-2-enamide Hydrochloride]
Hygroscopicity test; Hydrochloride
  weight gain (%): 46.67%
Crystallinity by PXRD
  Crystallinity by PXRD: amorphous

## CCOc1cc2ncc(C#N)c(Nc3ccc(Oc4ccccc4)cc3)c2cc1NC(=O)/C=C/CN(C)C.O=C(O)/C=C\C(=O)O [Maleate salt, (E)-N-(3-cyano-7-ethoxy-4-((4-phenoxyphenyl)amino)quinolin-6-yl)-4-(dimethylamino)but-2-enamide Maleate]
Hygroscopicity test
  weight gain (%): 0.2%
Crystallinity by PXRD
  Crystallinity by PXRD: crytalline
[1]
  bioavailability: 49.6%
